Literature values in US8840883B2, “Metallo-protein and tocotrienol (MP-T3) compositions with non-protein-type metal chelator and uses thereof” (Naidu LP, priority 2007, dated 2014).

Settings: as low as 2% oxygen

Row | SMILES | degradation [%]
1 | Cc1c(O)cc2c(c1C)O[C@](C)(CCC[C@H](C)CCC[C@H](C)CCCC(C)C)CC2 [gamma-tocopherol] | 20
2 | CC(C)=CCC/C(C)=C/CC/C(C)=C/CC[C@]1(C)CCc2cc(O)c(C)c(C)c2O1 [gamma-T3] | 29
